Results on 2 compounds are retold here after patent publication US20230293512A1, “S100 PROTEINS AS NOVEL THERAPEUTIC TARGETS IN MYELOPROLIFERATIVE NEOPLASMS” (ERASMUS UNIVERSITY MEDICAL CENTER ROTTERDAM, priority 2020, published 2023).

The structures appear in SMILES notation.

For experiment [1], the system named is mice developing JAK2(V617F)-mediated myelofibrosis. Put plainly: Tasquinimod treatment of mice with JAK2(V617F)-induced myelofibrosis. It counts as in vivo. Particulars: JAK2(V617F)-transplanted mice, 30 mg/kg/day in drinking water; for MPN-specific leukocytosis (white blood cell counts from peripheral blood) / splenomegaly (spleen weights normalized to mouse weight) / bone marrow fibrosis grade (reticulin grade): 30 mg/kg/day; for bone marrow fibrosis grade (reticulin grade): vehicle-treated mice developed grade 2-3 fibrosis and osteosclerosis. As to the method: Murine organs were fixed in 4% paraformaldehyde for 24 hours and transferred to 70% ethanol. Femurs were decalcified in 10% EDTA/Tris-HCl (pH 6.6) solution for 72 hours, dehydrated and paraffin embedded. H&E and reticulin staining were performed on 4 μm sections according to established routine protocols.
Blood was periodically collected from mice via submandibular bleeds into Microtainer tubes coated with K2EDTA (Becton Dickinson, NJ, USA) and complete blood counts were performed on a Horiba Scil Vet abc Plus hematology system.
For tasquinimod studies, WT recipient mice (n=7-10/group) were lethally irradiated (10.5 Gy) and received ckit^+ cells transduced with […] or JAK2^(WT) retroviral virus. Tasquinimod treatment (ABR-215050, Biorbyt) was administered via drinking water at 30 mg/kg/day dissolved in 3% sucrose in autoclaved water. Tasquinimod was first dissolved in DMSO and mixed with 3% sucrose, 2% PEG300 (Sigma) in water. Vehicle-treated groups received DMSO-, PEG300-treated water with 3% sucrose. Drinking bottles were renewed twice a week. Treatment was started at 5 weeks post-transplant until 10 post-transplant, and resumed at 13 weeks post-transplant until sacrifice at 20 weeks post-transplant. Mice were randomly assigned to transplant and treatment groups.
To further validate the role of S100A8/S100A9 in the fibrotic initiation and progression, the inventors sought to use a S100A9-inhibitor known as tasquinimod (ABR-215050) in mice developing JAK2(V617F)-mediated myelofibrosis. […] Tasquinimod treatment was administered via drinking water starting at 5 weeks post-transplant, until sacrifice at 20 weeks post-transplant with a treatment break at 10 weeks post-transplant to minimize deleterious effects on normal granulocyte function (FIG. 4A).

The target in another experiment is T1, S100A9 protein (Homo sapiens, UniProt P06702).
T1 sequence (P06702 1-114): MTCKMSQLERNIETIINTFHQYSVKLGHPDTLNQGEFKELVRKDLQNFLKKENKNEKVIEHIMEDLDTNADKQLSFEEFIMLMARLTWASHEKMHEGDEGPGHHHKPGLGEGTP
Particulars: cited from earlier work.

Another experiment deals with S100A8 and S100A9. Particulars: Stewart et al, Bone Marrow Res. 2018; cited from earlier work.
[2] abbreviates: weeks 5-10 and 13-20 post-transplant, vs vehicle.
The mark [3] stands for this setting: weeks 5-10 and 13-20 post-transplant, vs vehicle, listed as Tasquinimod.

Take `COc1cccc2c1c(O)c(C(=O)N(C)c1ccc(C(F)(F)F)cc1)c(=O)n2C` [tasquinimod, 4-hydroxy-5-methoxy-N,1-dimethyl-2-oxo-N-[4-(trifluoromethyl)phenyl]-1,2-dihydroquinoline-3-carboxamide]: in experiment [1] (setting [2]), the “thrombocytosis (platelet counts in peripheral blood)” value is “did not develop thrombocytosis”, the “MPN-specific leukocytosis (white blood cell counts from peripheral blood)” value is reported as “did not develop MPN-specific leukocytosis” and the “splenomegaly (spleen weights normalized to mouse weight)” value is “completely normalized”. In addition, in experiment [1] (setting [3]), the “MPN-specific leukocytosis (white blood cell counts from peripheral blood)” value was “normalizes splenomegaly and leukocytosis”; the “splenomegaly (spleen weights normalized to mouse weight)” value was “normalizes splenomegaly”. In addition, the “bone marrow fibrosis grade (reticulin grade)” value in experiment [1] is “reduced fibrosis grade”. For the same compound, in experiment [1] (listed as Tasquinimod), the “bone marrow fibrosis grade (reticulin grade)” value is reported as “reduces fibrosis in bone marrow”. Moreover, on S100A9 protein, the “binding to S100A9 protein and effect on its interaction with TLR4 and RAGE receptors” value is “binds to S100A9 protein and impedes its interaction with TLR4 and RAGE receptors”.
Take `Cc1sc2c(c1C)C(c1ccc(Cl)cc1)=N[C@@H](CC(=O)OC(C)(C)C)c1nnc(C)n1-2` [JQ1]: in the experiment on S100A8 and S100A9, the “S100A8 and S100A9 mRNA and protein levels” value is “suppress S100A8 and S100A9 mRNA and protein levels”.
